Experimental data reported in ChEMBL document CHEMBL5038598, “Design and Synthesis of Pyrrolo[2,3-d]pyrimidine-Derived Leucine-Rich Repeat Kinase 2 (LRRK2) Inhibitors Using a Checkpoint Kinase 1 (CHK1)-Derived Crystallographic Surrogate” (J Med Chem, 2021).
Activity calls are given as the source filed them. No cut-off for these calls is given here.

Legend:
[1] = Clearance in human liver microsomes; assay type: ADME, Microsome; conditions: read-out: CLH (converted)
P-glycoprotein (human) [2] = experiment: Apparent permeability in MDCK-MDR1 cells expressing human P-glycoprotein; assay type: ADME, cell-based, Canis lupus familiaris; conditions: dog
P-glycoprotein (human) [3] = experiment: Efflux ratio of permeability across basolateral to apical side over apical to basolateral side in MDCK-MDR1 cells expressing human P-glycoprotein; conditions: dog
Homo sapiens = species: Homo sapiens; experiment: Inhibition of human PIP5K2C (M1/A421) WT expressed in mammalian system assessed as remaining activity measured at 1 uM by DiscoveRx KINOMEscan assay relative to control
[4] = target: Receptor-type tyrosine-protein kinase FLT3 (Homo sapiens) (UniProt P36888); experiment: Inhibition of human FLT3 WT expressed in bacterial system assessed as remaining activity measured at 1 uM by DiscoveRx KINOMEscan assay
Sequence of Receptor-type tyrosine-protein kinase FLT3 (Homo sapiens) (P36888 whole entry): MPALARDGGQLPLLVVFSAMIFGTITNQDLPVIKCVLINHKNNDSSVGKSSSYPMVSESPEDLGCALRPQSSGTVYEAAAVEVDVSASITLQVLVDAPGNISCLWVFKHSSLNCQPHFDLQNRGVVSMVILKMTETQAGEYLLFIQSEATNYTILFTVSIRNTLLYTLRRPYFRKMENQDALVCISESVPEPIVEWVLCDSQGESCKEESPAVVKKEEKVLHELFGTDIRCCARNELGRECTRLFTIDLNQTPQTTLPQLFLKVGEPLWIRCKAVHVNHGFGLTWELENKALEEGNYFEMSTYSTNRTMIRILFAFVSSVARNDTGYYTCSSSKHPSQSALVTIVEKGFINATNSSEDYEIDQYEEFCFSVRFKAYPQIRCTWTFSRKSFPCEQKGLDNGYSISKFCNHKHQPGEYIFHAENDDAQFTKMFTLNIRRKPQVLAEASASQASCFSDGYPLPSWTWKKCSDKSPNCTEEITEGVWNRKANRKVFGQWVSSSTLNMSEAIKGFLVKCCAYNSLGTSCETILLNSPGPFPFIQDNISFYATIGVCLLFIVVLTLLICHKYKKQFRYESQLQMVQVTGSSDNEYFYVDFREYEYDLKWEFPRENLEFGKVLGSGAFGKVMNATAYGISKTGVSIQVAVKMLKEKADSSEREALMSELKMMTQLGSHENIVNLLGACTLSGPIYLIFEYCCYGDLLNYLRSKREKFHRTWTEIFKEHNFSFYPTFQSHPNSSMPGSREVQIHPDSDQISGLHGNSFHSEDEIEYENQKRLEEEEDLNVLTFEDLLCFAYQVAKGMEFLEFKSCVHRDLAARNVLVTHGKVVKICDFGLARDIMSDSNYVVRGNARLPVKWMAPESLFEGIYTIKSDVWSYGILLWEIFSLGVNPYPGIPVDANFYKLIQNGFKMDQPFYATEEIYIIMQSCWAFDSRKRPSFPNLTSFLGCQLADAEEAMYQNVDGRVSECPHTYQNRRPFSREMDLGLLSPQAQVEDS

[5] = Binding affinity to human PIP5K2C (M1/A421) WT expressed in mammalian system assessed as dissociation constant measured at 1 uM by DiscoveRx KINOMEscan assay
[6] = target: Leucine-rich repeat serine/threonine-protein kinase 2 (Homo sapiens, UniProt Q5S007); experiment: Inhibition of LRRK2 WT expressed in human PBMCs measured by KiNativ profiling analysis
Sequence of Leucine-rich repeat serine/threonine-protein kinase 2 (Q5S007 whole entry): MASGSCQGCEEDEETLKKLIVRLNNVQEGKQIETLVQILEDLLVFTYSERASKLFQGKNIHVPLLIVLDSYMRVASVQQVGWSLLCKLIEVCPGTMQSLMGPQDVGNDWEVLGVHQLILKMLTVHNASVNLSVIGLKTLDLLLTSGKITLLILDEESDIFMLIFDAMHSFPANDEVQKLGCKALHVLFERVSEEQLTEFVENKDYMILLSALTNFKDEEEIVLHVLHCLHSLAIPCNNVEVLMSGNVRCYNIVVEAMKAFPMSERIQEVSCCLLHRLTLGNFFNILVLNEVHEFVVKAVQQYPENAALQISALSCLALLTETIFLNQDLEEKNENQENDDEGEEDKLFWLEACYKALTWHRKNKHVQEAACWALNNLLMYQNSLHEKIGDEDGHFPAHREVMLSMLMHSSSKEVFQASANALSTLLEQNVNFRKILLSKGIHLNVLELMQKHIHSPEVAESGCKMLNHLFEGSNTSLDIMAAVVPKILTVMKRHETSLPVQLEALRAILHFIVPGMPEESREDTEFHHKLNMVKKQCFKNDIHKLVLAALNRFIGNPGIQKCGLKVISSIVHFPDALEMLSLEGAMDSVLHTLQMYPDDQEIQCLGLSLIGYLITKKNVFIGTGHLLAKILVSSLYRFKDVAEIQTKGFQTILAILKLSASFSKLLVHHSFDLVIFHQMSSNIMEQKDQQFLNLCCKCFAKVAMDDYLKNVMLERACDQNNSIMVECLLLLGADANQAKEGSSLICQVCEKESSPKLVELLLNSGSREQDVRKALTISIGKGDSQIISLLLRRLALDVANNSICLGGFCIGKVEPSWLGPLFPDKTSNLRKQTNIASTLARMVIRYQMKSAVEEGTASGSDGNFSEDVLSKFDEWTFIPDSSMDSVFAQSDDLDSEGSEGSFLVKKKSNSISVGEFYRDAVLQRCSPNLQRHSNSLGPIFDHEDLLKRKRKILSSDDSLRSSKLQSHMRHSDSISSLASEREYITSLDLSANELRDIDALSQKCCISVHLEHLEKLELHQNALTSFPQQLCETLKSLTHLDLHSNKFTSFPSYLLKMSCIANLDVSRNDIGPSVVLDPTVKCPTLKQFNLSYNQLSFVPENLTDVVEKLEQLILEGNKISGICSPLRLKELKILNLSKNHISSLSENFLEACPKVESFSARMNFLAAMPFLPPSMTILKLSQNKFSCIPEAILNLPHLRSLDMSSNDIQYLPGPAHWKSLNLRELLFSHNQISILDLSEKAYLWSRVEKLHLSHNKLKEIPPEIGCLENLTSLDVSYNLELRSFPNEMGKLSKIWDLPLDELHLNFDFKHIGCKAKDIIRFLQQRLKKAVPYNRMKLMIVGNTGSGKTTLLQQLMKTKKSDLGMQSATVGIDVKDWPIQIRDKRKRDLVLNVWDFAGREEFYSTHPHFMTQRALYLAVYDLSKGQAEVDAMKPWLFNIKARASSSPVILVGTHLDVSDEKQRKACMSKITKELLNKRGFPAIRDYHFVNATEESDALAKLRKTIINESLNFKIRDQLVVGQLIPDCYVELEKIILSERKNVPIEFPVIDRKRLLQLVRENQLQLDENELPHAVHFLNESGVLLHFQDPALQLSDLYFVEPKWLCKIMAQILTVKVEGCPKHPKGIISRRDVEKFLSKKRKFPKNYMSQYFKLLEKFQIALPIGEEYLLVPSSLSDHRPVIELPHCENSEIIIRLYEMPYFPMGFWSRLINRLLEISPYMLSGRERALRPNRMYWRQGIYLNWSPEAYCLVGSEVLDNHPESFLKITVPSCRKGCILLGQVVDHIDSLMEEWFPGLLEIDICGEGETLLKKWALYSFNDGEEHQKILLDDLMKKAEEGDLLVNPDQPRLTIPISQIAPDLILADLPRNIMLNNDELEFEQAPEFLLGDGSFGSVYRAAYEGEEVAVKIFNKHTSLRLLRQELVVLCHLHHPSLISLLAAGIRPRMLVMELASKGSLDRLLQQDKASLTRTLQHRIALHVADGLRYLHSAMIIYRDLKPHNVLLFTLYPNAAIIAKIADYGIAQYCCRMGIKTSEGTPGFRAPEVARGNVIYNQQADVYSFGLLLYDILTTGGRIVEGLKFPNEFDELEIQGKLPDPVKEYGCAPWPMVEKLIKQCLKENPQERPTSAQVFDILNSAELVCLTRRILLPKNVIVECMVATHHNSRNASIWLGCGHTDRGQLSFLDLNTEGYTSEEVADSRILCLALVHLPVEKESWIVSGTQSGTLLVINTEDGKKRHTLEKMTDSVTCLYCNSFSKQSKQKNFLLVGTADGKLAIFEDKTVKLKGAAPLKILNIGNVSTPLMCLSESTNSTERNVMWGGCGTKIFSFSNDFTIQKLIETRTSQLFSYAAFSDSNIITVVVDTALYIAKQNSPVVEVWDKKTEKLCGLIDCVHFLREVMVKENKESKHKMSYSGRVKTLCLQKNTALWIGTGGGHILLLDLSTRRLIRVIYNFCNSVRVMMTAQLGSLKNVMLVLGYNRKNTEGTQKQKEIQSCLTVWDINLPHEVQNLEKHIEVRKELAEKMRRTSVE

[7] = Clearance in Beagle dog plasma at 1 mg/kg, IV relative to liver blood flow; assay type: ADME, organism-based, Canis lupus familiaris
[8] = Volume of distribution in steady state in Beagle dog plasma at 1 mg/kg, IV […]; assay type: ADME, organism-based, Canis lupus familiaris; conditions: read-out: Vdss
[9] = Oral bioavailability in Beagle dog plasma at 2 mg/kg relative to liver blood flow; assay type: ADME, organism-based, Canis lupus familiaris
[10] = Drug uptake in C57BL/6 WT mouse brain at 5 mg/kg, sc and measured after 0.5 hrs; assay type: ADME, organism-based; conditions: C57BL/6, mouse, read-out: Drug uptake
[11] = Drug uptake in C57BL/6 WT mouse plasma at 5 mg/kg, sc and measured after 0.5 hrs; assay type: ADME, organism-based; conditions: C57BL/6, mouse
[12] = Drug uptake in Mdr1a/ 1b-BCRP knockout C57BL/6 mouse plasma at 5 mg/kg, sc and measured after 0.5 hrs; assay type: ADME, organism-based
[13] = Drug uptake in C57BL/6 WT mouse brain at 5 mg/kg, sc and measured after 1 hrs; assay type: ADME, organism-based; conditions: C57BL/6, mouse, read-out: Drug uptake
[14] = Drug uptake in Mdr1a deficient C57BL/6 mouse brain at 5 mg/kg, sc and measured after 1 hrs; assay type: ADME, organism-based; conditions: read-out: Drug uptake
[15] = Drug uptake in C57BL/6 WT mouse plasma at 5 mg/kg, sc and measured after 1 hrs; assay type: ADME, organism-based; conditions: C57BL/6, mouse
[16] = Drug uptake in Mdr1a deficient C57BL/6 mouse plasma at 5 mg/kg, sc and measured after 1 hrs; assay type: ADME, organism-based
[17] = Ratio of drug level in C57BL/6 WT mouse brain to plasma at 5 mg/kg, sc and measured after 1 hrs; assay type: ADME, organism-based; conditions: C57BL/6, mouse
[18] = Ratio of drug level in Mdr1A deficient C57BL/6 mouse brain to plasma at 5 mg/kg, sc and measured after 1 hrs; assay type: ADME, organism-based
[19] = Ratio of unbound drug level in Md1a/1b BCRP knockout C57BL/6 mouse brain to plasma at 5 mg/kg, sc and measured after 0.5 hrs; assay type: ADME, organism-based; conditions: in vivo
[20] = Ratio of unbound drug level in C57BL/6 WT mouse brain to plasma measured at 5 mg/kg, sc and measured after 1 hrs; assay type: ADME, organism-based; conditions: C57BL/6, mouse
[21] = Ratio of unbound drug level in Md1a deficient C57BL/6 mouse brain to plasma at 5 mg/kg, sc and measured after 1 hrs; assay type: ADME, organism-based
[22] = test system: Receptor-type tyrosine-protein kinase FLT3 (Homo sapiens), P36888 [UNDEFINED MUTATION]; experiment: Inhibition of human FLT3 ITD, D835V (V592/Y969) mutant expressed in bacterial system assessed as remaining activity measured at 1 uM by DiscoveRx KINOMEscan assay relative to control; values are per cent of control
Sequence of Receptor-type tyrosine-protein kinase FLT3 (Homo sapiens), P36888 [UNDEFINED MUTATION] (P36888 whole entry, looked up, stated change not applied): as the sequence (P36888 whole entry) above

[23] = Drug uptake in P-gp la-deficient C57BL/6 mouse brain at 5 mg/kg, sc and measured after 0.5 hrs; assay type: ADME, organism-based; conditions: read-out: Drug uptake
[24] = Drug uptake in mdrla-deficient C57BL/6 mouse plasma at 5 mg/kg, sc and measured after 0.5 hrs; assay type: ADME, organism-based
[25] = Ratio of drug level in Mdr1A deficient C57BL/6 mouse brain to plasma at 5 mg/kg, sc and measured after 0.5 hrs; assay type: ADME, organism-based
[26] = Ratio of unbound drug level in Md1a deficient C57BL/6 mouse brain to plasma at 5 mg/kg, sc and measured after 0.5 hrs; assay type: ADME, organism-based

SMILES | CLint scaled [1] [mL/min/kg] | Papp (P-glycoprotein (human) [2]) [×10⁻⁶ cm/s] | efflux ratio (P-glycoprotein (human) [3]) | Activity (Homo sapiens) [%] | inhibition [4] | Kd [5] [nM] | IC50 [6] [nM] | clearance [7] [mL/min/kg] | Vd [8] [L/kg] | bioavailability [9] [%] | concentration at 0.5 h [12] [ng/mL] | Ratio [19] | residual activity [22] [%] | also measured
Cc1c(Nc2nc(N)c3c(C#N)c(N4CCC[C@H]4C)n(C)c3n2)cnn1[C@H]1CCOC1 | 23.3 | 4.3 | 0.9 | < 37 | inactive | 430 | 86 | 53.3 | 1.8 | 96 | 1600 | 0.24 | 1.9 | concentration at 0.5 h [10]: 73 ng/g; concentration at 0.5 h [11]: 1610 ng/mL; concentration at 1 h [13]: 17 ng/g; concentration at 1 h [14]: 675 ng/g; concentration at 1 h [15]: 440 ng/mL; concentration at 1 h [16]: 100 ng/mL; Kp at 1 h [17]: 0.04; Kp at 1 h [18]: 0.15; Kp uu at 1 h [20]: 0.014; Kp uu at 1 h [21]: 0.056
Cc1c(Nc2nc(N)c3c(C#N)c(N4CCC[C@H]4C)n(C)c3n2)cnn1[C@@H]1CCOC1 | 28.3 | 4.6 | 1.2 | < 37 | inactive | 190 | 67 | 36.7 | 1 | 25 | 1960 | 0.37 | 25 | concentration at 0.5 h [23]: 256 ng/g; concentration at 0.5 h [24]: 2140 ng/mL; Kp at 0.5 h [25]: 0.31; Kp uu at 0.5 h [26]: 0.11
